Experimental data: patent US6071919A, “Zwitterionic compositions and methods as biological response modifiers” (priority 1998, dated 2000)

Legend:
[1] = Example Fourteen: patient with ventricular irritability; assay type: in vivo, human; details: 3000 mg orally for seven days; baseline 4-6 per minute
Protocol: A person with ventricular irritability, 4-6 premature ventricular contractions per minute (PVCs), was not controlled with Prancetyl, Quinidine, or beta blockade. They were taking no medicines and was started on 3000 mg zwitterionic piperazine orally for seven days. At the end of seven days, the patient had only occasional PVC (1 every 10 minutes).

[2] = ADA: data of Schwarzenbach et al. (1955); cited from earlier work
[3] = ADA: data of Schwarzenbach et al. (1955); cited from earlier work; remark: listed apart in the source
[4] = tested on: HIV; experiment: Example Ten: patient with HIV infection and HIV associated polyneuropathy; assay type: in vivo; details: 5000 mg i.v. daily, after thirty days
Protocol: A person with documented HIV infection had HIV associated polyneuropathy. They could not raise their legs without assistance. They were given 5000 mg intravenously of zwitterionic piperazine (HEPES) daily for thirty days. […] Their cluster determinates had risen and sensation and proprioception were improved.

In the case of O=S(=O)(O)CCN1CCN(CCO)CC1 [HEPES, N-2 Hydroxyethylpiperazine-N'-2 Ethane Sulfonic Acid], the “premature ventricular contractions (PVC)” value [1] is given as 1 every 10 minutes, the “Metal-Buffer Binding Constants Log KM, Mn^2+” value [2] is given as “Negl” and the “Metal-Buffer Binding Constants Log KM, Ca^2+” value [3] is given as “Negl”. The “Total viral load determined by PCR” value [4] was “decreased”, the “ability to raise legs” value [4] was “could raise their legs without assistance” and the cluster determinates [4] was “had risen”. The sensation and proprioception [4] was “improved”.
